Test results from ChEMBL document CHEMBL1201862, “PubChem BioAssay data set” (2004).
Active and inactive are the calls of the source.

How the values were obtained:
[1] = A cytotoxicity screen of small molecule inhibitors of the PhoP region in Salmonella typhi identified in the primary screen. [Related pubchem assays: 1850, 1864, 1985 ]; type: functional
[2] = target: Luciferin 4-monooxygenase (Photinus pyralis, UniProt P08659); test: firefly luciferase enzyme inhibitors, dose response, biochemical, luminescence (AID 1891)
[3] = Luminescence Cell-Based Dose Confirmation HTS to Identify Inhibitors of Platelet Dense Granule Release. [Related pubchem assays: 1663 (Primary HTS), 1678 (Summary of Project)]; type: functional
[4] = target: T1, Mucolipin-3 (Homo sapiens, UniProt Q8TDD5); test: Dose response cell-based high-throughput screening assay for agonists of the transient receptor potential channel ML3 (TRPML3). [Related pubchem assays: 1526, 1424, 1448 ]; type: functional
T1 sequence (Q8TDD5 whole entry): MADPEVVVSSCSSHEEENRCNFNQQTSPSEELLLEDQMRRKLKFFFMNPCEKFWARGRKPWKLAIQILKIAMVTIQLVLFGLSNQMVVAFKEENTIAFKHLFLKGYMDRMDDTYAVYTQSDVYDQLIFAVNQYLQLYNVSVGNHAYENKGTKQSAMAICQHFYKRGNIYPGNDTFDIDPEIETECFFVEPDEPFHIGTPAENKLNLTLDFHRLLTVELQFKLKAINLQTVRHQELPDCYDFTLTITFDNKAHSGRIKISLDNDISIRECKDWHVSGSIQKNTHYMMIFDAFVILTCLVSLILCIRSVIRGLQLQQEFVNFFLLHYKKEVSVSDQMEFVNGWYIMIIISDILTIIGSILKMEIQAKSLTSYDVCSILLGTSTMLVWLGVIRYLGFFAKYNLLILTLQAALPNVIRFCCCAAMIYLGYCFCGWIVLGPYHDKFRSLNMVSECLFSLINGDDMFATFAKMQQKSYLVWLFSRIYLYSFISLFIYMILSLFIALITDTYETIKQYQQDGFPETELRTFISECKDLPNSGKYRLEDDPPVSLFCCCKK

[5] = target: Ion channel NompC (Danio rerio, UniProt Q7T1G6); test: Fluorescence counterscreen assay for TRPML3 agonists: dose response cell-based high-throughput screening assay to identify agonists of the transient receptor potential channel N1 (TRPN1). [Related pubchem assays: 1526, 1424, 1448 ]; type: functional
[6] = target: Ephrin type-A receptor 4 (Mus musculus, UniProt Q03137); test: inhibitors of EphA4 binding to KYL peptide, primary screen, biochemical, colorimetric, mouse EphA4 (AID 689); type: functional
[7] = test system: Streptococcus sp. 'group A'; test: growth inhibition of control SK(-) GAS strain, dose response, counter-screen for streptokinase expression inhibitor project, luminescence, kanamycin, BacTiterGlo, confirmation (AID 1900); type: functional, organism-based
[8] = target: T2, Streptokinase A (Streptococcus pyogenes serotype M1, UniProt P10520); test: S. pyogenes streptokinase expression inhibitors, potency, dose response, plasminogen activation absorbance, OD405 (AID 1914); type: functional, Streptococcus pyogenes M1 GAS;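 also: secreted streptokinase activity via plasminogen activation per viability signal from cell pellet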
T2 sequence (P10520 whole entry): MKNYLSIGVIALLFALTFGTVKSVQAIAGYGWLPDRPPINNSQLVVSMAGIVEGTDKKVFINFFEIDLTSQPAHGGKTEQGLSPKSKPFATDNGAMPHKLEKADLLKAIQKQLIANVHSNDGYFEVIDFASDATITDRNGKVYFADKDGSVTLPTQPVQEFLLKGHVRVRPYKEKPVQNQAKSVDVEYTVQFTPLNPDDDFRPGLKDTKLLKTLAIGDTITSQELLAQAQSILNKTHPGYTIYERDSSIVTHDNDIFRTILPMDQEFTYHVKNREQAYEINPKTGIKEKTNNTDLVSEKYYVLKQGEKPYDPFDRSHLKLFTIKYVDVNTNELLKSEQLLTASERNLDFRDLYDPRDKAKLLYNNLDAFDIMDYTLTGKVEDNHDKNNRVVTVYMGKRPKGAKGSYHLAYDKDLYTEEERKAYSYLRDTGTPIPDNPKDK

[9] = cytotoxicity in HPDE-C7 cells, cell-based, fluorescence, HTS (AID 430); type: functional; conditions: Homo sapiens
[10] = cytotoxicity in KRAS-transformed pancreatic duct cells, primary screen, cell-based, fluorescence, HTS (AID 431); type: functional; conditions: Homo sapiens;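 also: cell line used: HPDE-C7K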
[11] = growth suppression of PTEN-null colon cells, dose response, cell-based, HCT116 PTEN knockout (AID 1047); type: functional;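 also: HCT116 colon tumor cells with PTEN knocked out; cells exposed to compound for 60 hours before readout; potency for loss of cell viability measured by luminescence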
[12] = growth suppression of beta-catenin-knockout colon cells, dose response, cell-based, HCT116, human colon tumor (AID 1045); type: functional;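 also: HCT116 colon tumor cells with beta catenin knocked out; cells exposed to compound for 60 hours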
[13] = test system: Streptococcus; test: Group A Streptococcus viability loss, dose response, counter-screen for streptokinase expression inhibitor project, luminescence, BacTiterGlo (AID 1915); type: functional, organism-based;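 also: potency for reduction of bacterial viability or growth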
[14] = target: T3, Caspase-3 (Homo sapiens, UniProt P42574); type: functional;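 also: Dose-response selectivity test against caspase-3 for candidate inhibitors of sentrin-specific proteases (SENPs)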
T3 sequence (P42574 whole entry): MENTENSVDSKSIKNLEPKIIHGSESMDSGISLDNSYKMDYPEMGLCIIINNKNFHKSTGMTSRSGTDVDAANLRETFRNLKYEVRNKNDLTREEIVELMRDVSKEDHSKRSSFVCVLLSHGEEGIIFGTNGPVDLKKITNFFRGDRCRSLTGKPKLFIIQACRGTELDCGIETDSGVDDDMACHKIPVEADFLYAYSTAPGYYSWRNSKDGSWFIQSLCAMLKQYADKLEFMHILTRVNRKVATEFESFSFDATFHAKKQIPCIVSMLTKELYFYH

[15] = target: T4, Sentrin-specific protease 7 (Homo sapiens, UniProt Q9BQF6); type: functional;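 also: Luminescence-based dose-response confirmation of ultra-high-throughput screening hits, measuring inhibition of SENP7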
T4 sequence (Q9BQF6 whole entry): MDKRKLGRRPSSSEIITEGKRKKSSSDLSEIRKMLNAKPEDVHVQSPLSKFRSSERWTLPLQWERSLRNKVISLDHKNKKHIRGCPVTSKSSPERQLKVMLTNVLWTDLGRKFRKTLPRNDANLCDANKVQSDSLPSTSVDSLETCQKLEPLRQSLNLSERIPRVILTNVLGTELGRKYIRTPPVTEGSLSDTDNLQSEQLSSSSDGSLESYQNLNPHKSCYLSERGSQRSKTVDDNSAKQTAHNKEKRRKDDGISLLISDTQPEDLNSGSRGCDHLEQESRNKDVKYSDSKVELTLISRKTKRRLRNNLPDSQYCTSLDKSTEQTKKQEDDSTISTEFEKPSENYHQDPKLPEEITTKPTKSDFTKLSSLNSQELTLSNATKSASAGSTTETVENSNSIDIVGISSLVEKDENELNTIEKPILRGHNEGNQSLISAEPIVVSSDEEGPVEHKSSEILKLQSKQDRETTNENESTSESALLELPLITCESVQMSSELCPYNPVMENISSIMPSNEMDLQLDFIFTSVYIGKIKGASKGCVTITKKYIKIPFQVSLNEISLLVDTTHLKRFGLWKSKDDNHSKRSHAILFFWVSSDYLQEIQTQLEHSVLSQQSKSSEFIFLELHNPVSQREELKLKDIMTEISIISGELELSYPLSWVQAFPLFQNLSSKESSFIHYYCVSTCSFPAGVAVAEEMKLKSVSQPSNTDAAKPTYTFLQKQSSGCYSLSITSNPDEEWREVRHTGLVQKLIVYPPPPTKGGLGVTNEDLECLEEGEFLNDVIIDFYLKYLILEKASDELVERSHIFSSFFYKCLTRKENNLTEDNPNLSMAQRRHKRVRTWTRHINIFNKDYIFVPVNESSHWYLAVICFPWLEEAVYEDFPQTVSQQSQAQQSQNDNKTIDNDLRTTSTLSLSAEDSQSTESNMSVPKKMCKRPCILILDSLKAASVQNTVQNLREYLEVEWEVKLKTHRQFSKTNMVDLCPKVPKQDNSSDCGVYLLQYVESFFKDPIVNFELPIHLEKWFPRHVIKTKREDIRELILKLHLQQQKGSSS

[16] = target: T5, Sentrin-specific protease 6 (Homo sapiens, UniProt Q9GZR1); type: functional;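 also: Luminescence-based dose-response confirmatory assay of SENP6 inhibition, following up an ultra-high-throughput screen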
T5 sequence (Q9GZR1 whole entry): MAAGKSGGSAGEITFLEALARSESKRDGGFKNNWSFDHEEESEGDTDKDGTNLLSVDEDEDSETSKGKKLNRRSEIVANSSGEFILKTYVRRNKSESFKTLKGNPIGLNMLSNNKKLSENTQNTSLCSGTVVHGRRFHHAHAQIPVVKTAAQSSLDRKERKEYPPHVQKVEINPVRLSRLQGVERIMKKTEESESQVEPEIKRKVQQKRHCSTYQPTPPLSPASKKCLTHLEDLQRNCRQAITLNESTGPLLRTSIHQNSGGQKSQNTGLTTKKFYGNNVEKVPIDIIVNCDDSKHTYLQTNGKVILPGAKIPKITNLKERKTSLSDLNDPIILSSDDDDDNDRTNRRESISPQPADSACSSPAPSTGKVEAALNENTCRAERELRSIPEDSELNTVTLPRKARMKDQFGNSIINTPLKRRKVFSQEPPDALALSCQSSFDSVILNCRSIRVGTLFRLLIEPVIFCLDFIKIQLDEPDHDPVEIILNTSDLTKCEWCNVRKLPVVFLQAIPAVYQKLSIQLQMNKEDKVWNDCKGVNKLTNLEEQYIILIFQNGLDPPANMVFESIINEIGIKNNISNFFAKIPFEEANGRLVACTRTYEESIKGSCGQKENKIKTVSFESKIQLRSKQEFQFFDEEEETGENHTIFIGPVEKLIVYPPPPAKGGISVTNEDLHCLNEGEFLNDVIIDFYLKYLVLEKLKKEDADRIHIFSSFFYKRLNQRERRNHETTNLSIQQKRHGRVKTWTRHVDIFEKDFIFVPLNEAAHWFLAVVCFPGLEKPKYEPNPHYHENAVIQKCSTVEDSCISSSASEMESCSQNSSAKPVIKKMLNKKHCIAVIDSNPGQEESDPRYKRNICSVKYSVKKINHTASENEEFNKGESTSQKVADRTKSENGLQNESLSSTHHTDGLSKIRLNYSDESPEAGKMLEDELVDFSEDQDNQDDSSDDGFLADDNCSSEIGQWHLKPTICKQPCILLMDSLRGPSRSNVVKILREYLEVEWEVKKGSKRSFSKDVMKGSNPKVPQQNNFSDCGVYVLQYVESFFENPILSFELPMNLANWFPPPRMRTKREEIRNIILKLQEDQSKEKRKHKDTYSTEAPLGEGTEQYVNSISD

[17] = target: T6, Sentrin-specific protease 8 (Homo sapiens, UniProt Q96LD8); type: functional;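 also: luminescence read-out of SENP8 inhibition, dose-response confirmation following an ultra-high-throughput screen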
T6 sequence (Q96LD8 whole entry): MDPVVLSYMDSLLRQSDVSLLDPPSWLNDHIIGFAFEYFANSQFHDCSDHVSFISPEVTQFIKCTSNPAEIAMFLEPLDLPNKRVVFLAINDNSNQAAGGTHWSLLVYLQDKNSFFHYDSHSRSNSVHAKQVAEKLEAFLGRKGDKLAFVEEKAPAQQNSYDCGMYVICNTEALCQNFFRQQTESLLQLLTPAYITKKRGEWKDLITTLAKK

[18] = target: Heat shock protein HSP 90-alpha (Homo sapiens, UniProt P07900); type: functional, organism-based
[19] = target: Estrogen receptor beta (Homo sapiens, UniProt Q92731);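 also: recombinant ER-beta bound to coactivator SRC1 peptide in presence of estradiol agonist; inhibitors block coactivator peptide binding and lower the FRET signal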
[20] = target: Cytochrome P450 2C9 (Homo sapiens, UniProt P11712); conditions: Potency
[21] = target: Induced myeloid leukemia cell differentiation protein Mcl-1 (Homo sapiens, UniProt Q07820); type: functional
[22] = cells; type: functional

Chain of Ion channel NompC (Q7T1G6 whole entry): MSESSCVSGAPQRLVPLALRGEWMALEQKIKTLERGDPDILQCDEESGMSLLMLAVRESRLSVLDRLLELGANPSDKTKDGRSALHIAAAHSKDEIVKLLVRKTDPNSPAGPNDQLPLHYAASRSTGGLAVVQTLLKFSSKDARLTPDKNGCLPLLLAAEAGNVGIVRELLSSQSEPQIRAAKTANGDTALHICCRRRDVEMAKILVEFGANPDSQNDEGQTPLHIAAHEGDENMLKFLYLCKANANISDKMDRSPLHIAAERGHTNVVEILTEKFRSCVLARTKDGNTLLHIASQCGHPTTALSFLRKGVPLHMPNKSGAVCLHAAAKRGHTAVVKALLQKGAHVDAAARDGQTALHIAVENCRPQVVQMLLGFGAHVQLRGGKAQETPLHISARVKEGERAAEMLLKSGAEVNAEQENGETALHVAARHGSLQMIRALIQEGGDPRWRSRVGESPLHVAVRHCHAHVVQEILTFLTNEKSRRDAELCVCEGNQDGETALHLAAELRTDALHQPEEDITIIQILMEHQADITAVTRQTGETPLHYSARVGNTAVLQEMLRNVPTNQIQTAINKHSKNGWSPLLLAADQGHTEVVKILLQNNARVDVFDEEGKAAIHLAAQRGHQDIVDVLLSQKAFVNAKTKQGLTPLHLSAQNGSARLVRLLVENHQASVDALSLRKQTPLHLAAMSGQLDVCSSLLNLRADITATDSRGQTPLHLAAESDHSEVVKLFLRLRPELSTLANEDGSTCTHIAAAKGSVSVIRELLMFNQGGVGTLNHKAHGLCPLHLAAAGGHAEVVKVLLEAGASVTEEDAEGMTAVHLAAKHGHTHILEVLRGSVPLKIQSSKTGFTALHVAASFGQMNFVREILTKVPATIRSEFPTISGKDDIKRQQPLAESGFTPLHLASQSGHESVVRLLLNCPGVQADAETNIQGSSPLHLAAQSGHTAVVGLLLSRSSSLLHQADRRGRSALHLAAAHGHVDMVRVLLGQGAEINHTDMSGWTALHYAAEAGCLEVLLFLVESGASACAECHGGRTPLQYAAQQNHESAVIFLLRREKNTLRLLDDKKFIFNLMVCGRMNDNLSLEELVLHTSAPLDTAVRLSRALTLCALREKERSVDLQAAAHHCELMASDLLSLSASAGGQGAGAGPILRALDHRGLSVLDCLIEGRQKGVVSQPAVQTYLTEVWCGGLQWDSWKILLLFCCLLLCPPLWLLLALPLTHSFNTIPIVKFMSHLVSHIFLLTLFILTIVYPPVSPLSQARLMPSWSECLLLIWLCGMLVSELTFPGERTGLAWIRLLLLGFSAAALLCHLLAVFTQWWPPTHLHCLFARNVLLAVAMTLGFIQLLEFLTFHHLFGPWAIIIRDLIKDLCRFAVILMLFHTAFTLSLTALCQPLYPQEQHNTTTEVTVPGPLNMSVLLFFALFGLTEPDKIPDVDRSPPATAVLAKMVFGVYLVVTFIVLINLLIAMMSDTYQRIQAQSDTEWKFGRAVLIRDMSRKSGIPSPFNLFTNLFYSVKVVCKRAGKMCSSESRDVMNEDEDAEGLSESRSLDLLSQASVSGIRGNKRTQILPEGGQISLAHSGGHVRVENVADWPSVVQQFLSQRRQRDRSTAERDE
Chain of Induced myeloid leukemia cell differentiation protein Mcl-1 (Q07820 whole entry): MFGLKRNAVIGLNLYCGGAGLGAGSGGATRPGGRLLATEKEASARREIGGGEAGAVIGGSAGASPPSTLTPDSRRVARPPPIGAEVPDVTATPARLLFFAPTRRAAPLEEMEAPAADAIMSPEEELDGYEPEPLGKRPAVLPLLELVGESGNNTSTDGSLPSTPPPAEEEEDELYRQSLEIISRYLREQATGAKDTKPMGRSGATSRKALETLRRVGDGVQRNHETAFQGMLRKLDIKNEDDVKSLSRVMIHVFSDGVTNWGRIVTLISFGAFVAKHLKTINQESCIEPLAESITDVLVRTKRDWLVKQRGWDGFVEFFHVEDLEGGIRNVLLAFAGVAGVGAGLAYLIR
Chain of Estrogen receptor beta (Q92731 whole entry): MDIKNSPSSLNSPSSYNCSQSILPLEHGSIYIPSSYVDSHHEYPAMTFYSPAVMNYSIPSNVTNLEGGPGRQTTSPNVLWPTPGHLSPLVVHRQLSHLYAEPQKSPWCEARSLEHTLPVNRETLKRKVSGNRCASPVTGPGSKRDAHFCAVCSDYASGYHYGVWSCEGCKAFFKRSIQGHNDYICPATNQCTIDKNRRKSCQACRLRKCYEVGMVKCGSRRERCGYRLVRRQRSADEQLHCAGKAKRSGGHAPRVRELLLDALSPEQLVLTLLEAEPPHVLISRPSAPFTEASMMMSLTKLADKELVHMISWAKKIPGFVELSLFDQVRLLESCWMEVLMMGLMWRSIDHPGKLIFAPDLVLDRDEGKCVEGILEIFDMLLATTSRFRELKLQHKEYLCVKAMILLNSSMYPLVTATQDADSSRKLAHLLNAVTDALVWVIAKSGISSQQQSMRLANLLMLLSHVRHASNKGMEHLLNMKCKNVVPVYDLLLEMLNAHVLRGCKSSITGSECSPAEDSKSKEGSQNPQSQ
Chain of Ephrin type-A receptor 4 (Q03137 whole entry): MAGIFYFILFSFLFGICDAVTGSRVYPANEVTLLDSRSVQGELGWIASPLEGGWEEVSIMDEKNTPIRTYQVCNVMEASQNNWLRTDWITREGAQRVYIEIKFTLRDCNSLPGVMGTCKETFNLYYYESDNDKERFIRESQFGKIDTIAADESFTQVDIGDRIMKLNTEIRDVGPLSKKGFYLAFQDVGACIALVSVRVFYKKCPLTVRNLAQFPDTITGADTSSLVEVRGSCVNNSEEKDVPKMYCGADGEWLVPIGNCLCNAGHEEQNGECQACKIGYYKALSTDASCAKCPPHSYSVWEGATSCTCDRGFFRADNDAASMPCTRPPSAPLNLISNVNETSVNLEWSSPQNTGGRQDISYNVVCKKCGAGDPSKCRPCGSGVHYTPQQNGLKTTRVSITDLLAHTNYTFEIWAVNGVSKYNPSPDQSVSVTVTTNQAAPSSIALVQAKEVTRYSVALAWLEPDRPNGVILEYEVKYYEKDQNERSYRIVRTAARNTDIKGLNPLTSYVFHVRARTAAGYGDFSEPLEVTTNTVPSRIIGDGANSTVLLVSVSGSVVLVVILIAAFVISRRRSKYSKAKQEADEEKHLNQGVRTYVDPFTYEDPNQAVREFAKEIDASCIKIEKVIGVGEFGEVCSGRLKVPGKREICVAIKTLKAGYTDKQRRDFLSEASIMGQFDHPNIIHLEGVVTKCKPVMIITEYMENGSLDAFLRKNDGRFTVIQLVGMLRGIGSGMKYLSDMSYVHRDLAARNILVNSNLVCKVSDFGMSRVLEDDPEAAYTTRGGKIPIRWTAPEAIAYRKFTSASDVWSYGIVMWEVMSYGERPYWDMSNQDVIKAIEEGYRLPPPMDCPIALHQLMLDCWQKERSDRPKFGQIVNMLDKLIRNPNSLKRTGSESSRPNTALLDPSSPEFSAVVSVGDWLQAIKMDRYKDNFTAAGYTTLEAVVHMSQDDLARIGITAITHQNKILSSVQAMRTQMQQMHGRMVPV
Chain of Luciferin 4-monooxygenase (P08659 whole entry): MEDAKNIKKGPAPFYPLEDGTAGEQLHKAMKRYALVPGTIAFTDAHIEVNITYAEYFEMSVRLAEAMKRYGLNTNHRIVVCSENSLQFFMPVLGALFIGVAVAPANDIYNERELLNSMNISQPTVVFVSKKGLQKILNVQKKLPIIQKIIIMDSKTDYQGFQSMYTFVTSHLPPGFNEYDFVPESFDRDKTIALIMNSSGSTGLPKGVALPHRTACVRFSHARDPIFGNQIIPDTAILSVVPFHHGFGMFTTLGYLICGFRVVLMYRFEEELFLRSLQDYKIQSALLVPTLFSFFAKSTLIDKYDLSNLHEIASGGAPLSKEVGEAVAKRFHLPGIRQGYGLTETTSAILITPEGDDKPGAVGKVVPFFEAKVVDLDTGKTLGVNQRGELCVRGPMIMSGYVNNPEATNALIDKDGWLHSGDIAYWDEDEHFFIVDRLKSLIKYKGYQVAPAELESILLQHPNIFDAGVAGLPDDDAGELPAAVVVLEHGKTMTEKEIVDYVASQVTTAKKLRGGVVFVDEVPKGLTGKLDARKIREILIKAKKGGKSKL
Chain of Cytochrome P450 2C9 (P11712 whole entry): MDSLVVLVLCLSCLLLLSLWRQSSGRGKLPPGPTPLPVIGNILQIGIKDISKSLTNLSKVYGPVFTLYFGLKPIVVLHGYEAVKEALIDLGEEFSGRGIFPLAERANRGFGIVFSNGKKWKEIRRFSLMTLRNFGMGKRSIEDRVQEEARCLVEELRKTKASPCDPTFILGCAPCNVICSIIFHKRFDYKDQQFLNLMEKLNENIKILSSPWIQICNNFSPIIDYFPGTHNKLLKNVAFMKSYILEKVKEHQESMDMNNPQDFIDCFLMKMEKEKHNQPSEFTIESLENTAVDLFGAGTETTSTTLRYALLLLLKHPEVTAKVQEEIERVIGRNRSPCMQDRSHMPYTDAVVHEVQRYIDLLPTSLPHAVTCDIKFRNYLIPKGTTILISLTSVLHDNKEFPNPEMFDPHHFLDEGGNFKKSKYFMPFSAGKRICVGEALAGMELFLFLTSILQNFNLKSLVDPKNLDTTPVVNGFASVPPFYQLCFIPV

CCN(CC)S(=O)(=O)c1cc(NC(=O)C2Cc3ccccc3C(=O)O2)ccc1C (configuration not stated)
EC50 [1]: > 50 µM (active) | EC50 [2]: > 112 µM (not active) | EC50 [3]: > 112 µM (not active)

Cc1nn(C(C)(C)C)c(OC(=O)C2CCCC2)c1S(=O)(=O)c1ccccc1
EC50 [4]: > 9.99 µM (not active) | EC50 [5]: > 29.9 µM (not active)

CC(=O)OC1(c2ccc(C)cc2)CN2CCC1c1ccccc12 (configuration not stated)
IC50 [6]: > 100 µM (not active)

COc1ccc(O)c(-c2cc(-c3cccc(Br)c3)[nH]n2)c1
EC50 [7]: 6.53 µM (active) | EC50 [8]: > 150 µM (inconclusive) | EC50 [9]: 8.85 µM (active) | EC50 [10]: 4.73 µM (active) | EC50 [11]: 25.4 µM (active) | EC50 [12]: 16.6 µM (active) | EC50 [13]: 12.4 µM (active) | IC50 [14]: 97.7 µM (active) | IC50 [15]: 11.3 µM (active) | IC50 [16]: 26.5 µM (active) | IC50 [17]: 29.1 µM (active) | AC50 [18]: 8.06 µM (active)

N#Cc1nc(-c2ccc(OCc3ccccc3)cc2)oc1NCCCN1CCOCC1
EC50 [9]: 13 µM (active) | EC50 [10]: 13.6 µM (active)

O=C(C1Cc2ccccc2CN1S(=O)(=O)c1ccc(F)cc1)N1CCCCCC1 (configuration not stated)
EC50 [4]: 3.72 µM (active) | EC50 [5]: > 29.9 µM (not active)

COc1ccc(N2CCN(C(=O)CCCn3c(=O)[nH]c4ccsc4c3=O)CC2)cc1
IC50 [19]: > 50 µM (not active)

CC(C)C[C@@H](CC(=O)N[C@H](CC(=O)N[C@@H]1CCCC[C@H]1C(=O)N[C@H](CC(=O)N[C@@H](CCC(=O)O)CC(=O)O)Cc1ccccc1)C(C)C)NC(=O)[C@@H]1CCCC[C@H]1N
AC50 [20]: 39.8 µM (inconclusive)

COC(=O)c1ccc(Cl)cc1N(Cc1c(F)cccc1Cl)S(C)(=O)=O
EC50 [4]: 2.49 µM (active) | EC50 [5]: 6.15 µM (active)

COc1cc(NC(=O)c2cccs2)c(C(=O)OCC(=O)NC(=O)NC(C)(C)C)cc1OC
IC50 [19]: > 50 µM (not active)

C=CCOc1ccc(Cl)cc1CNC1CCCC1
EC50 [1]: > 50 µM (active)

CCOC(=O)c1cc(-c2ccco2)nc2c1c(C)nn2-c1cccc(Cl)c1
IC50 [21]: 2.51 µM (active)

COc1ccc(-c2noc(CCC(=O)Nc3cccc(C)c3)n2)cc1
EC50 [1]: > 50 µM (active) | IC50 [22]: 15.9 µM (active)

[O-][n+]1onc2c1CCC(=N/O)/C2=N\Nc1ccccc1
IC50 [21]: 4.87 µM (active)
